The values below come from patent US11773096B2, “Small-molecule PI5P4K alpha/beta inhibitors and methods of treatment using same” (YALE UNIVERSITY, priority 2018, dated 2023).

In one experiment the target is PI3Kγ (Homo sapiens, UniProt P48736). Briefly: Lipid kinase panel (ADP-Glo). Background: In ADP-Glo the light output rises with the ADP produced.
The test system of a further experiment is L6 myotubes. Briefly: 2-deoxyglucose uptake. The experiment is classed as cell-based, rat. Conditions: overnight treatment with 20 μM 7a or 1 mM metformin. How it is done:
To measure 2-deoxyglucose (2-DG) uptake, L6 myotubes were treated with compound or DMSO control overnight in the absence of serum in α-MEM. Following treatment, cells were washed twice with KRH buffer (50 mM HEPES pH 7.4, 137 mM NaCl, 4.7 mM KCl, 1.85 mM CaCl2, 1.3 mM MgSO4) containing 0.1% BSA. Residual wash buffer was removed by aspiration. Cells were then incubated for 10 min at 37° C. in a KRH buffer containing 0.1% BSA, 5 mM unlabeled 2-DG and 2 μCi/ml [1,2-^3H(N)]-2-deoxy-D-glucose (PerkinElmer). The uptake was terminated by washing four times with ice-cold KRH buffer containing 0.1% BSA. Nonspecific 2-DG uptake into cells was determined in the presence of 10 μM cytochalasin B, which inhibits glucose transporters, and subtracted. The cells were lysed with 0.05 M NaOH for 2 hrs at 37° C. 10 μl cell lysate was used to quantify protein concentration by BCA assay. The remaining sample was transferred to a scintillation vial containing 3 ml Opti-Fluor liquid scintillation cocktail (PerkinElmer), and radioactivity was determined using a Beckman Coulter LS 6500 scintillation system and normalized against protein concentration.

The target in a further experiment is TNIK (Homo sapiens, UniProt Q9UKE5). Briefly: HotSpot protein kinase panel. Conditions: read-out: TNIK activity remaining.
For experiment [1], the system named is BT474 cells. Briefly: Glucose consumption and lactate secretion in BT474 cells. The experiment is classed as cell-based. On the procedure: (§1) To measure glucose consumption and lactate production, a total of 1×10^5 cells were seeded into each well of a 12-well plate and cultured in the presence of compound for 48 hrs. The culture media were collected and deproteinized by centrifugation using an Amicon Ultra centrifugal filter (3 kDa cut-off), while cells were lysed and used for protein concentration determination by BCA assay. The media were assayed immediately for glucose and lactate levels using colorimetric assay kits from BioVision following the manufacturer's protocols. The values were normalized against protein concentration. All measurements were made in triplicate.

In a further experiment the target is TYRO3 (Homo sapiens, UniProt Q06418). Briefly: HotSpot protein kinase panel. Conditions: read-out: TYRO3 activity remaining.
Chain of TYRO3 (Q06418 41-890): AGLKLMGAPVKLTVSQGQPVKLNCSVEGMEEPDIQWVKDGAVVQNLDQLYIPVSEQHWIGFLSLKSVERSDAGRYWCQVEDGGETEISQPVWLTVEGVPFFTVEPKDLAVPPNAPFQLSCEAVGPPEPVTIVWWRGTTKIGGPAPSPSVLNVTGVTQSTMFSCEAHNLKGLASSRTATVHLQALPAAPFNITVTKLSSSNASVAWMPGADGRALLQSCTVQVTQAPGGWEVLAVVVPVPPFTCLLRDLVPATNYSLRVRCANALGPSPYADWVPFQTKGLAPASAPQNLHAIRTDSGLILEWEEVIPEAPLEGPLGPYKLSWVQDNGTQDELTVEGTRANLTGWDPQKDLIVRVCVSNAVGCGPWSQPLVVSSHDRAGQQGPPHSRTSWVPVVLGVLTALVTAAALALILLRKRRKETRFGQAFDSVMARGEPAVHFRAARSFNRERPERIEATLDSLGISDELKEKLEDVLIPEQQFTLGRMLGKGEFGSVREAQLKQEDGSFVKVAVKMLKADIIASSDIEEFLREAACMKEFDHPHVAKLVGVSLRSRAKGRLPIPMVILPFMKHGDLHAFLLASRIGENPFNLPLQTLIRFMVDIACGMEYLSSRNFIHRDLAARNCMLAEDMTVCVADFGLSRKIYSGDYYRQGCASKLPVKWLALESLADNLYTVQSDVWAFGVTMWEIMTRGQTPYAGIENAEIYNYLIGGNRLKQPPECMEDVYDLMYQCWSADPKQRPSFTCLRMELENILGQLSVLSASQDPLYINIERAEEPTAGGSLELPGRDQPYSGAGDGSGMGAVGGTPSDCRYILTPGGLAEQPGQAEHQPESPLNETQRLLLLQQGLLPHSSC
In a further experiment the test system is BT-474 cells. Nature of the experiment: Intracellular ROS (DCFDA). The experiment is classed as cell-based. Conditions: 20 μM. On the procedure: 2′,7′-dichlorofluorescin diacetate (DCFDA) was used to assess intracellular ROS levels. DCFDA is deacetylated in the cell and oxidized by ROS to a fluorescent product 2′,7′-dichlorofluorescein (DCF). BT-474 cells were plated on a black clear-bottom 96-well plate (Corning 3603; 2×10^4 cells per well). ROS was measured by a DCFDA cellular ROS detection assay kit (Abcam) following the manufacturer's protocol. The cells were treated with compound for 6 hrs before fluorescence was measured using a SpectraMax M5 plate reader (excitation 485 nm, emission 535 nm).

For experiment [2], the system named is BT474 cells. Nature of the experiment: Proliferation (CellTiter-Glo). It is filed as cell-based. How it is done: To measure cell number using the CellTiter-Glo 2.0 assay kit (Promega), cultured cells were equilibrated to room temperature for 30 min, and an equal volume of the CellTiter-Glo reagent was added and mixed for 2 min on an orbital shaker. The plates were incubated for another 10 min before luminescence was recorded using a SpectraMax M5 plate reader. To assess the effect of compound on growth, cells were plated onto white solid-bottom 96-well plates (coming 3917) at 2,000 cells per well in sextuplicate. After 24 hrs, compound (or DMSO control) was added to the wells, and cell number was determined after culturing for 0, 24, 48, and 72 hrs.
(In general: In ATP-based viability assays light output follows the ATP content of the culture.)

A further experiment deals with myotubes. Nature of the experiment: Glucose consumption and lactate production in myotube culture media. It is filed as cell-based. On the procedure:
as §1

The test system of a further experiment is MCF10A p53(−/−) cells. Briefly: Growth of isogenic MCF10A cells, p53(−/−). It is filed as cell-based.
A further experiment deals with PI3Kδ (Homo sapiens, UniProt O00329). Nature of the experiment: Lipid kinase panel (ADP-Glo).
Chain of PI3Kδ (O00329 whole entry, species assumed): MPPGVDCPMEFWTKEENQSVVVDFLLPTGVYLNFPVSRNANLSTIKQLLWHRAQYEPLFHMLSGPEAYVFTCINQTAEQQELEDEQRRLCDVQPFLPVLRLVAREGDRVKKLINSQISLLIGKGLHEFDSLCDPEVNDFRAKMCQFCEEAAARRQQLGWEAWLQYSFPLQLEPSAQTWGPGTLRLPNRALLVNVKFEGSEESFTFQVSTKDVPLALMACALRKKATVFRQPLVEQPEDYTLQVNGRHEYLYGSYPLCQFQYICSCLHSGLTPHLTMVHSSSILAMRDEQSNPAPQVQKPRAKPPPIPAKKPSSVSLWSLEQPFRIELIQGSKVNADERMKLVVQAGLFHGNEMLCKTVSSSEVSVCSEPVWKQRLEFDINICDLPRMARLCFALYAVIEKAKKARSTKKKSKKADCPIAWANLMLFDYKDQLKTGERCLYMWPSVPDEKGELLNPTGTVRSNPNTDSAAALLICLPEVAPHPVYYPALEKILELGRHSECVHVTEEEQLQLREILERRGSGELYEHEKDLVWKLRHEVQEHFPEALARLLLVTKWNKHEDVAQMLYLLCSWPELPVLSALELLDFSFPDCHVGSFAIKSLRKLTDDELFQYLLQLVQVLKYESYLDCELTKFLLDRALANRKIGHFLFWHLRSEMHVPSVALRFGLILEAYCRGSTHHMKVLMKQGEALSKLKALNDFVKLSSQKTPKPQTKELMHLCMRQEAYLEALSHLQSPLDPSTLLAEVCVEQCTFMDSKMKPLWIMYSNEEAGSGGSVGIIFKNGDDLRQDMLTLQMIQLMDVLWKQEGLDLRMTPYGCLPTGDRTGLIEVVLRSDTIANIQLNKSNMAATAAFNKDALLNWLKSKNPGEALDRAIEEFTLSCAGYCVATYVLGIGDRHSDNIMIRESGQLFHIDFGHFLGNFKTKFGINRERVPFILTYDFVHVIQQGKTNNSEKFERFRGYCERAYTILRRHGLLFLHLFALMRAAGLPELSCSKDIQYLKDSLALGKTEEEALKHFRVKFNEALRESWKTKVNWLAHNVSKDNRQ
Chain of PI3Kδ (P27986 whole entry partner, species assumed): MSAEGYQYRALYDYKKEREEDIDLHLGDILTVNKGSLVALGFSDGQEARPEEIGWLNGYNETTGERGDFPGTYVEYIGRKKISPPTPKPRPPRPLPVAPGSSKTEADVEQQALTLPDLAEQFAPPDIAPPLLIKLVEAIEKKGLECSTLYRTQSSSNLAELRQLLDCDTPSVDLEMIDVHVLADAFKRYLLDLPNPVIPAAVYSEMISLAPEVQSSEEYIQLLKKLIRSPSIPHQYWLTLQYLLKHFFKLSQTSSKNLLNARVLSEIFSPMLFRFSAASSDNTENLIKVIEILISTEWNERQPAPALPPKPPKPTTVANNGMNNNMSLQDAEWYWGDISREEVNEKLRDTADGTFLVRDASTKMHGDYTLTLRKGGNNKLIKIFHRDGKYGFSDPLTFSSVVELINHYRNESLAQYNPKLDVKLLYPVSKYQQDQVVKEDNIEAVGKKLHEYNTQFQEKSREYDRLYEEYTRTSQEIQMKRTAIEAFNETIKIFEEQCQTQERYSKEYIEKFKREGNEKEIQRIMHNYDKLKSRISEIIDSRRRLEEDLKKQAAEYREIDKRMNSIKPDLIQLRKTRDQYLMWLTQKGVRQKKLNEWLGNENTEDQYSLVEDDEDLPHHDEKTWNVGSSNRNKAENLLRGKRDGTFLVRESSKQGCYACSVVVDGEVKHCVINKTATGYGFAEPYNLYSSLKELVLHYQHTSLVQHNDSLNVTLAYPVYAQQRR
A further experiment concerns the target PIKfyve (Homo sapiens, UniProt Q9Y2I7). Briefly: Lipid kinase assay.

Chain of PIKfyve (Q9Y2I7 whole entry, species assumed): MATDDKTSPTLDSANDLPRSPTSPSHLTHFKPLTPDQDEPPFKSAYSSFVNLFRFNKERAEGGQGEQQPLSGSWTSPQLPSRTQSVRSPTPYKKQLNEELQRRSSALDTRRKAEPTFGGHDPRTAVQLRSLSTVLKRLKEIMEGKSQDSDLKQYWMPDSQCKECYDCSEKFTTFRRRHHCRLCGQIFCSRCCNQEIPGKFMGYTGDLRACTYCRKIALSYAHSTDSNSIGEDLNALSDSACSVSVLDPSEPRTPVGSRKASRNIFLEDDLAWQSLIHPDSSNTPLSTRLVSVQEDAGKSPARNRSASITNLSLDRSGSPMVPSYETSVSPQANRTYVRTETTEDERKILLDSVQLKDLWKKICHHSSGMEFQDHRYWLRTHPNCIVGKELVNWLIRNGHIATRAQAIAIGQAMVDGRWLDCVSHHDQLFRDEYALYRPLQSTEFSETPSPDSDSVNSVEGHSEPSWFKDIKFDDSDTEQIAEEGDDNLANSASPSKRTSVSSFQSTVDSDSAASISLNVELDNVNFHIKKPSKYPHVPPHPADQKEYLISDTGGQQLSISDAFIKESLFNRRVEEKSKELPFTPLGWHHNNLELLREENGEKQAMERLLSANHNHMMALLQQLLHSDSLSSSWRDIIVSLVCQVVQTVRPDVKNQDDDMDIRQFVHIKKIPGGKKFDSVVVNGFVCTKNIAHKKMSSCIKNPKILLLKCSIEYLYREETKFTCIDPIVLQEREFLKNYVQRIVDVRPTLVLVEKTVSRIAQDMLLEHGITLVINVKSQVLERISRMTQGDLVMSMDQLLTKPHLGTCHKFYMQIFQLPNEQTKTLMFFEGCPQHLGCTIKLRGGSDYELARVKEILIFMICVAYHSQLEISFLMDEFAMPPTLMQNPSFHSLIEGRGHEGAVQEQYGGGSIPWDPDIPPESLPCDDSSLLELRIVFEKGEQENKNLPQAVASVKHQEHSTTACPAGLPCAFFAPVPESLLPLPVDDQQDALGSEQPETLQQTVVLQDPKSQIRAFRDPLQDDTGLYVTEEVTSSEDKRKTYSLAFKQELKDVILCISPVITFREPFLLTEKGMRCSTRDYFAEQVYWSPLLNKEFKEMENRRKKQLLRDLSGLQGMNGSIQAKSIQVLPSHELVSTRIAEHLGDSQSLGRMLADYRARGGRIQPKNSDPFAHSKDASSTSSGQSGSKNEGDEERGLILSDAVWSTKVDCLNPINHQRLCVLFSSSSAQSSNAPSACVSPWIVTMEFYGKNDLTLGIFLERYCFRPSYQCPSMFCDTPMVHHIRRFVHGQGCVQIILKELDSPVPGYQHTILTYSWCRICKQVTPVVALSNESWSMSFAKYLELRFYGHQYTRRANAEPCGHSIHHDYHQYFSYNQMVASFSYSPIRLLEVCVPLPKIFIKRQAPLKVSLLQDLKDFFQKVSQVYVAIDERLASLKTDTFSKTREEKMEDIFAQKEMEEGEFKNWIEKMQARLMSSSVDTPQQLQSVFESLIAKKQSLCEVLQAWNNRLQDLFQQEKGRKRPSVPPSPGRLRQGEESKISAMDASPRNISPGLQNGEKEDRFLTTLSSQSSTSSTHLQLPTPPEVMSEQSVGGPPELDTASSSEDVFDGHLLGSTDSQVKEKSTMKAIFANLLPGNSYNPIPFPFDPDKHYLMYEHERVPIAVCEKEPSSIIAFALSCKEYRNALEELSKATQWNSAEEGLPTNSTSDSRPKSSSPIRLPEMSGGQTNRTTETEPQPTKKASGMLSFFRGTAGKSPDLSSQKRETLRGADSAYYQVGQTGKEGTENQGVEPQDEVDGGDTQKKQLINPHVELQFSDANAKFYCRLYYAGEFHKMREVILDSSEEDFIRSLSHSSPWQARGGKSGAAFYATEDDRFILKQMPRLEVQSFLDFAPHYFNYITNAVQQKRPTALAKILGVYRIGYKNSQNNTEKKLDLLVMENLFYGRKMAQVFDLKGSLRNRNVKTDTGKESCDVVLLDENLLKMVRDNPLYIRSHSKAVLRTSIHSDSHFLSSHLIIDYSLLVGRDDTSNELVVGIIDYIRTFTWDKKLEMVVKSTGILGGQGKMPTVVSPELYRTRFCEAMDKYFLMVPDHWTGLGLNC
Method for PI3Kγ: (§2) In both titrations, the ATP concentration was fixed at 50 μM.
Method for PI3Kδ: as §2
Method for TNIK: In both titrations, the ATP concentration was fixed at 50 μM. The assay kits for Plk1 and RSK2 were obtained from Promega (Madison, Wis.), which use ADP-Glo™ for activity detection.

Turning to `CN1C(=O)[C@@H](CC2CCCC2)N(C2CCCC2)c2nc(Nc3cc(Cl)c(O)c(Cl)c3)ncc21` [7a, (R)-8-cyclopentyl-7-(cyclopentylmethyl)-2-((3,5-dichloro-4-hydroxyphenyl)amino)-5-methyl-7,8-dihydropteridin-6(5H)-one], the Ki (commonly the equilibrium dissociation constant of an inhibitor or competing ligand from its target) at PI3Kγ is about 200 nM; on PI3Kδ it was about 120 nM; at PIKfyve it was about 200 nM. Besides, the “rate of glucose uptake (labeled 2-deoxyglucose)” value in the experiment with L6 myotubes is recorded as “doubled”. Further, the results for the remaining activity at 0.5 µM on TNIK and at TYRO3 were 73% and 72%, respectively. Moreover, the lactate fermentation entry in the experiment on BT474 cells [1] (absence of serum) is “slightly increased”. In addition, the “metabolic switch induced by serum (glucose consumption, lactate secretion)” value in the experiment with BT474 cells [1] (with serum) is listed as “prevented”. Moreover, the ROS result in the experiment with BT-474 cells is given as “increased”. Further, the “sensitivity of BT474 growth to inhibition at 32° C.” value in the experiment with BT474 cells [2] (32° C. (restores p53 function)) is “less sensitive”. Further, the “growth of BT474 cells” value in the experiment on BT474 cells [2] (dose-dependent, 37° C.) is recorded as “inhibited”. In addition, in the experiment with myotubes (48 hours after treatment), the “lactate accumulated in the media” value turned out to be 7.7 mM. Also, the “reduction of glucose concentration in the media” value with myotubes (48 hours after treatment) is 10.3 mM. Moreover, the “increase in glucose consumption” value in the experiment with myotubes (after 2 days of cell culture) turned out to be 32%. Besides, the “increase in lactate secretion” value with myotubes (after 2 days of cell culture) was 45%. Besides, the “residual growth of p53(−/−) cells under EGFR inhibition” value in the experiment on MCF10A p53(−/−) cells (10 μM 7a) is on record as “eliminated”. Besides, the “sensitivity of growth of p53(−/−) vs p53(+/+) cells” value with MCF10A p53(−/−) cells (without EGF supplement) is “more sensitive”.
